This passage reports IC50 results from patent US10538521B2, “Pyrimidine derivative having antimalarial activity” (CARNA BIOSCIENCES, INC., priority 2016, dated 2020).

Usually IC50 stands for the concentration needed to halve the response being measured.

Each structure is given as a SMILES string.

In assay [1] the test system is K1 strain, a drug resistant strain of Plasmodium falciparum. Briefly: In vitro antimalarial assay (p-LDH, Malstat), K1 strain. It is filed as cell-based. As to conditions: P. falciparum K1 (drug resistant), 72 h culture, p-LDH readout, read-out: Antimalarial activity (IC50 value), Strain K1. In a few lines: (§1)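 IC50 derived from concentration-response of parasite lactate dehydrogenase signal (Malstat reagent, NBT/PES formazan at 655 nm) after freeze-thaw lysis. Infected erythrocytes (hematocrit 2%, parasitaemia 0.5 or 1%) exposed 72 h to 12.5–0.0001 μM final compound under 3% O2-4% CO2-93% N2, FCR3 and K1 alike.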

The subject of assay [2] is FCR3 strain, a drug sensitive strain of Plasmodium falciparum. Briefly: In vitro antimalarial assay (p-LDH, Malstat), FCR3 strain. Type of assay: cell-based. As to conditions: P. falciparum FCR3 (drug sensitive), 72 h culture, p-LDH readout, read-out: Antimalarial activity (IC50 value), Strain FCR3. Put shortly: as §1

On to `Cc1cc(C)nc(Nc2nc(Nc3ccn4ccnc4c3)cc(N(C)C)n2)c1` [Example 84, N2-(4,6-dimethylpyridin-2-yl)-N4-(imidazo[1,2-a]pyridin-7-yl)-N6,N6-dimethylpyrimidine-2,4,6-triamine], for which the IC50 in assay [1] and in assay [2] was under 100 nM each time.
As to `c1cn2ccc(Nc3cc(N4CCOCC4)nc(Nc4ccc(OC5CCOCC5)nc4)n3)cc2n1` [Example 82, N4-(imidazo[1,2-a]pyridin-7-yl)-6-morpholino-N2-(6-((tetrahydro-2H-pyran-4-yl)oxy)pyridin-3-yl)pyrimidine-2,4-diamine], the IC50 in assay [1] and in assay [2] was 100 to 1000 nM each time.
As to `Cc1cc(C)nc(Nc2nc(Nc3ccn4ccnc4c3)cc(N3CCC(O)C3)n2)c1` (stereo not shown) [Example 136, 1-(2-((4,6-dimethylpyridin-2-yl)amino)-6-(imidazo[1,2-a]pyridin-7-ylamino)pyrimidin-4-yl)pyrrolidin-3-ol], the IC50 in assay [1] and in assay [2] was under 100 nM each time.
`COc1ccc(Nc2nc(Nc3ccn4ccnc4c3)cc(N3CCOCC3)n2)cn1` [Example 1, N4-(Imidazo[1,2-a]pyridin-7-yl)-N2-(6-methoxypyridin-3-yl)-6-morpholinopyrimidine-2,4-diamine]: the IC50 in assay [1] and in assay [2] was under 100 nM in each case.
On to `OCCOc1cccc(Nc2nc(Nc3ccn4ccnc4c3)cc(N3CCCC3)n2)n1` [Example 157, 2-[(6-{[4-(imidazo[1,2-a]pyridin-7-ylamino)-6-(pyrrolidin-1-yl)pyrimidin-2-yl]amino}pyridin-2-yl)oxy]ethanol], for which the IC50 in assay [1] and in assay [2] was under 100 nM each time.
In the case of `Cc1cc(C)nc(Nc2nc(Nc3ccn4ccnc4c3)cc(N3CCC(N4CCOCC4)C3)n2)c1` (stereo not shown) [Example 149, N2-(4,6-dimethylpyridin-2-yl)-N4-(imidazo[1,2-a]pyridin-7-yl)-6-(3-morpholinopyrrolidin-1-yl)pyrimidine-2,4-diamine], the 50% inhibitory concentration (IC50) in assay [1] and in assay [2] was under 100 nM each time.
Take `CC(C)(C)c1cccc(Nc2nc(Nc3ccn4ccnc4c3)cc(N3CCCCC3)n2)n1` [Example 122, N2-(6-(tert-butyl)pyridin-2-yl)-N4-(imidazo[1,2-a]pyridin-7-yl)-6-(piperidin-1-yl)pyrimidine-2,4-diamine]: the IC50 in assay [1] and in assay [2] was 100 to 1000 nM each time.
Turning to `CCc1ccnc(Nc2nc(Nc3ccn4ccnc4c3)cc(N3CC[C@H](O)C3)n2)c1` [Example 117, (S)-1-(2-((4-ethylpyridin-2-yl)amino)-6-(imidazo[1,2-a]pyridin-7-ylamino)pyrimidin-4-yl)pyrrolidin-3-ol], the 50% inhibitory concentration (IC50) in assay [1] and in assay [2] was under 100 nM throughout.
As to `CCOc1cc(Nc2ccn3ccnc3c2)nc(Nc2cccc(C)n2)n1` [Example 29, 6-ethoxy-N4-(imidazo[1,2-a]pyridin-7-yl)-N2-(6-methylpyridin-2-yl)pyrimidine-2,4-diamine], the IC50 in assay [1] and in assay [2] was 100 to 1000 nM each time.
Turning to `Cc1cc(C)nc(Nc2nc(Nc3ccn4ccnc4c3)cc(N3CCC(N4CCCC4)C3)n2)c1` (stereo not shown) [Example 148, 6-([1,3′-bipyrrolidin]-1′-yl)-N2-(4,6-dimethylpyridin-2-yl)-N4-(imidazo[1,2-a]pyridin-7-yl)pyrimidine-2,4-diamine], the IC50 in assay [1] and in assay [2] was under 100 nM in each case.
On to `CC(C)(C)Oc1ccc(Nc2nc(Nc3ccn4ccnc4c3)cc(N3CCOCC3)n2)cn1` [Example 63, N2-(6-(tert-butoxy)pyridin-3-yl)-N4-(imidazo[1,2-a]pyridin-7-yl)-6-morpholinopyrimidine-2,4-diamine], for which the IC50 in assay [1] and in assay [2] was 100 to 1000 nM in each case.
As to `O=[N+]([O-])c1ccnc(Nc2nc(Nc3ccn4ccnc4c3)cc(N3CCOCC3)n2)c1` [Example 49, N4-(imidazo[1,2-a]pyridin-7-yl)-6-morpholino-N2-(4-nitropyridin-2-yl)pyrimidine-2,4-diamine], the results for the half-maximal inhibitory concentration (IC50) in assay [1] and in assay [2] were 1000 to 10000 nM and 100 to 1000 nM, respectively.
`Cc1cc(C)nc(Nc2nc(Nc3ccn4ccnc4c3)cc(N3CCC(F)(F)C3)n2)c1` [Example 138, 6-(3,3-difluoropyrrolidin-1-yl)-N2-(4,6-dimethylpyridin-2-yl)-N4-(imidazo[1,2-a]pyridin-7-yl)pyrimidine-2,4-diamine]: the IC50 in assay [1] was 100 to 1000 nM; in assay [2], under 100 nM.
On to `COCCOc1cccc(Nc2nc(Nc3ccn4ccnc4c3)cc(N3CCCC3)n2)n1` [Example 152, N4-(imidazo[1,2-a]pyridin-7-yl)-N2-[6-(2-methoxyethoxy)pyridin-2-yl]-6-(pyrrolidin-1-yl)pyrimidine-2,4-diamine], for which the IC50 in assay [1] and in assay [2] was under 100 nM each time.
On to `CCCCc1cc(C)cc(Nc2nc(Nc3ccn4ccnc4c3)cc(N3CCCCC3)n2)n1` [Example 187, N2-(6-butyl-4-methylpyridin-2-yl)-N4-(imidazo[1,2-a]pyridin-7-yl)-6-(piperidin-1-yl) pyrimidine-2,4-diamine], for which the IC50 in assay [1] and in assay [2] was 100 to 1000 nM throughout.
For the compound `Cc1ccc(Nc2nc(Nc3ccn4ccnc4c3)cc(N3CCCCC3)n2)nc1C` [Example 88, N2-(5,6-dimethylpyridin-2-yl)-N4-(imidazo[1,2-a]pyridin-7-yl)-6-(piperidin-1-yl)pyrimidine-2,4-diamine], the half-inhibitory concentration (IC50) in assay [1] and in assay [2] was under 100 nM in each case.
For the compound `Cc1ccc(Nc2nc(Nc3ccn4ccnc4c3)cc(N(C)C)n2)cn1` [Example 83, N4-(imidazo[1,2-a]pyridin-7-yl)-N6,N6-dimethyl-N2-(6-methylpyridin-3-yl)pyrimidine-2,4,6-triamine], the IC50 fell in the range of 1000 to 10000 nM in assay [1] and 100 to 1000 nM in assay [2].
In the same order, the values of `COc1ccnc(Nc2nc(Nc3ccn4ccnc4c3)cc(N3CCOCC3)n2)c1` [Example 48, N4-(imidazo[1,2-a]pyridin-7-yl)-N2-(4-methoxypyridin-2-yl)-6-morpholinopyrimidine-2,4-diamine] are under 100 nM and under 100 nM.
In the same order, the values of `COc1cccc(Nc2nc(Nc3ccn4ccnc4c3)cc(N3CCCC3)n2)n1` [Example 143, N4-(imidazo[1,2-a]pyridin-7-yl)-N2-(6-methoxypyridin-2-yl)-6-(pyrrolidin-1-yl)pyrimidine-2,4-diamine] are 100 to 1000 nM and 1000 to 10000 nM.
As for `CCCCc1cccc(Nc2nc(Nc3ccn4ccnc4c3)cc(N3CC4(COC4)C3)n2)n1` [Example 181, N2-(6-butylpyridin-2-yl)-N4-(imidazo[1,2-a]pyridin-7-yl)-6-(2-oxa-6-azaspiro[3.3]heptan-6-yl)pyrimidine-2,4-diamine], the IC50 was under 100 nM in assay [1] and 100 to 1000 nM in assay [2].
For `FC(F)(F)COc1ccc(Nc2nc(Nc3ccn4ccnc4c3)cc(N3CCOCC3)n2)cn1` [Example 77, N4-(imidazo[1,2-a]pyridin-7-yl)-6-morpholino-N2-(6-(2,2,2-trifluoroethoxy)pyridin-3-yl) pyrimidine-2,4-diamine], in that order: 100 to 1000 nM and under 100 nM.
In the same order, the values of `Cc1cc(C)nc(Nc2nc(Nc3ccn4ccnc4c3)cc(Nn3cccc3)n2)c1` [Example 200, N2-(4,6-dimethylpyridin-2-yl)-N4-(imidazo[1,2-a]pyridin-7-yl)-N6-(1H-pyrrol-1-yl)pyrimidine-2,4,6-triamine] are 100 to 1000 nM and 100 to 1000 nM.
For `Cc1nc(Nc2nc(Nc3ccn4ccnc4c3)cc(N3CCCCC3)n2)ccc1Cl` [Example 203, N2-(5-chloro-6-methylpyridin-2-yl)-N4-(imidazo[1,2-a]pyridin-7-yl)-6-(piperidin-1-yl) pyrimidine-2,4-diamine], in that order: 100 to 1000 nM and 100 to 1000 nM.
As to `Fc1ccc(Nc2nc(Nc3ccn4ccnc4c3)cc(N3CCOCC3)n2)cn1` [Example 12, N2-(6-Fluoropyridin-3-yl)-N4-(imidazo[1,2-a]pyridin-7-yl)-6-morpholinopyrimidine-2,4-diamine], the IC50 in assay [1] and in assay [2] was 100 to 1000 nM each time.
For `Cc1cc(Nc2nc(Nc3ccn4ccnc4c3)cc(N3CCCCC3)n2)ncc1F` [Example 204, N2-(5-fluoro-4-methylpyridin-2-yl)-N4-(imidazo[1,2-a]pyridin-7-yl)-6-(piperidin-1-yl) pyrimidine-2,4-diamine], the IC50 in assay [1] and in assay [2] was 100 to 1000 nM each time.
Turning to `Cc1cc(C)nc(Nc2nc(Nc3ccn4ccnc4c3)cc(N3C[C@H]4CCC[C@H]4C3)n2)c1` [Example 176, N2-(4,6-dimethylpyridin-2-yl)-6-[(3aR,6aS)-hexahydrocyclopenta [c]pyrrol-2(1H)-yl]-N4-(imidazo[1,2-a]pyridin-7-yl) pyrimidine-2,4-diamine], the IC50 in assay [1] and in assay [2] was under 100 nM throughout.
For `CCCCc1cccc(Nc2nc(Nc3ccn4ccnc4c3)cc(N3CCC4(CCCC4)C3)n2)n1` [Example 173, N2-(6-butylpyridin-2-yl)-N4-(imidazo[1,2-a]pyridin-7-yl)-6-(2-azaspiro[4.4]nonan-2-yl) pyrimidine-2,4-diamine], the IC50 in assay [1] and in assay [2] was 100 to 1000 nM each time.
Take `CC(C)COc1ccc(Nc2nc(Nc3ccn4ccnc4c3)cc(N3CCOCC3)n2)cn1` [Example 64, N4-(imidazo[1,2-a]pyridin-7-yl)-N2-(6-isobutoxypyridin-3-yl)-6-morpholinopyrimidine-2,4-diamine]: the IC50 is 100 to 1000 nM in assay [1] and under 100 nM in assay [2].
For `Cc1cc(CC(C)C)nc(Nc2nc(Nc3ccn4ccnc4c3)cc(N3CCCCC3)n2)c1` [Example 188, N4-(imidazo[1,2-a]pyridin-7-yl)-N2-(6-isobutyl-4-methylpyridin-2-yl)-6-(piperidin-1-yl) pyrimidine-2,4-diamine], in that order: under 100 nM and under 100 nM.
